The results in this text go back to patent publication US20240182445A1 (ONO PHARMACEUTICAL CO., LTD., priority 2019, published 2024).

The target in one experiment is T1, human TREK-1 (Homo sapiens, UniProt O95069).
T1 construct: expressed in transfected cells
T1 sequence (O95069 1-426): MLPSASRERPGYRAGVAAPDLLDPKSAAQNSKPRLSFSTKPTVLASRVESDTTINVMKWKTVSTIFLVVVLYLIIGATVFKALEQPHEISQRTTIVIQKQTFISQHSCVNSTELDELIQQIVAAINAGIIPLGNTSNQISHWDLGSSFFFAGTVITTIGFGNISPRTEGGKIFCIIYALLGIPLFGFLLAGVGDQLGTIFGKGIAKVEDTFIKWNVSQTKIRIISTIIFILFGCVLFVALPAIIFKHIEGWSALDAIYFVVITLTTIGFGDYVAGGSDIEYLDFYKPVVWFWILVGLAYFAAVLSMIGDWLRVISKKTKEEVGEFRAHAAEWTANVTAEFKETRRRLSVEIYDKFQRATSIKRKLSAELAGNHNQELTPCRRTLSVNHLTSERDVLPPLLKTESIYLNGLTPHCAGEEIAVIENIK
The experiment can be described thus: TREK-1 Thallium (Tl+) flux assay, Method 1. The experiment is classed as cell-based. The conditions noted are these: TREK-1 Thallium (Tl+) flux assay, Method 1. An outline of the steps:
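Readout: Thallos fluorescence ratio, taken 25 s post-thallium relative to the pre-thallium baseline average, then converted to % inhibition. Cells were CHO-K1 stably expressing human TREK-1, dye-loaded and exposed to test compound (vehicle 0.3% DMSO) for 10 min prior to thallium stimulation.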
For orientation: IC50 means the concentration at which inhibition is half-maximal. A higher IC50 goes with lower potency. Molecule `Cc1cc(OCc2ccccc2)ccc1NC(=O)c1c(Cl)cnn1CC1CN(C(=O)C2CCC2)CCO1` (centres unmarked) [Compound 424, N-(4-(benzyloxy)-2-methylphenyl)-4-chloro-1-((4-(cyclobutanecarbonyl)morpholin-2-yl)methyl)-1H-pyrazole-5-carboxamide] showed a half-inhibitory concentration (IC50) of 4.85 µM. `Cc1cc(-c2cnn(-c3ccccc3)c2)cnc1NC(=O)c1c(Cl)cnn1C1CCN(C(=O)OC(C)(C)C)CC1` [Compound 413, tert-butyl 4-(4-chloro-5-((3-methyl-5-(1-phenyl-1H-pyrazol-4-yl)pyridin-2-yl)carbamoyl)-1H-pyrazol-1-yl)piperidine-1-carboxylate] gave a 50% inhibitory concentration (IC50) of 3.53 µM.

In turn, `CC(=O)N1CCC(n2ncc(Cl)c2C(=O)Nc2ncc(-c3ccc(OC(F)(F)F)cc3)cc2C)CC1` [Compound 414, 1-(1-acetylpiperidin-4-yl)-4-chloro-N-(3-methyl-5-(4-(trifluoromethoxy)phenyl)pyridin-2-yl)-1H-pyrazole-5-carboxamide] yielded an IC50 of 3.62 µM.

Staying with this experiment, now noted: TREK-1 Thallium (Tl+) flux assay; no *^12 (Method 2) mark on these rows.
In turn, `Cn1ncc2cc(-n3ncc(Cl)c3C(=O)Nc3ncc(C#Cc4ccccc4)cc3F)ccc21` [Compound 270, 4-chloro-N-(3-fluoro-5-(phenylethynyl)pyridin-2-yl)-1-(1-methyl-1H-indazole-5-yl)-1H-pyrazole-5-carboxamide] showed a half-maximal inhibitory concentration (IC50) of 0.46 µM. Molecule `Cc1cc(C#Cc2ccccc2)cnc1NC(=O)c1c(Cl)cnn1C1CCCC(NC(=O)OC(C)(C)C)C1` (centres unmarked) [Compound 358, tert-butyl (3-(4-chloro-5-((3-methyl-5-(phenylethynyl)pyridin-2-yl)carbamoyl)-1H-pyrazol-1-yl)cyclohexyl)carbamate] came in with an IC50 of 0.88 µM.

On to `Cc1ccc(C#Cc2cnc(NC(=O)c3c(Cl)cnn3[C@H]3CCOC3)c(C)c2)cc1` [Compound 316, (S)-4-chloro-N-(3-methyl-5-(p-tolylethynyl)pyridin-2-yl)-1-(tetrahydrofuran-3-yl)-1H-pyrazole-5-carboxamide], for which inhibition was half-maximal at 0.61 µM (IC50).

`Cc1cc(C#Cc2ccc(F)cc2)cnc1NC(=O)c1c(Cl)cnn1CCN1CCN(C(=O)C2COCCO2)CC1` (centres unmarked) [Compound 246, 1-(2-(4-(1,4-dioxane-2-carbonyl)piperazin-1-yl)ethyl)-4-chloro-N-(5-((4-fluorophenyl)ethynyl)-3-methylpyridin-2-yl)-1H-pyrazole-5-carboxamide] returned an IC50 of 0.39 µM. In the case of `Cc1cc(C#Cc2ccccc2)cnc1NC(=O)c1c(Cl)cnn1C1CN(C(=O)OC(C)(C)C)C1` [Compound 287, tert-butyl 3-(4-chloro-5-((3-methyl-5-(phenylethynyl)pyridin-2-yl)carbamoyl)-1H-pyrazol-1-yl)azetidine-1-carboxylate], half-maximal inhibition (IC50) was put at 0.5 µM. `Cc1cc(C#Cc2ccc(F)cc2)cnc1NC(=O)c1c(Cl)cnn1C[C@H]1CCCN(C(=O)C(C)C)C1` [Compound 320, (S)-4-chloro-N-(5-((4-fluorophenyl)ethynyl)-3-methylpyridin-2-yl)-1-((1-isobutyrylpiperidin-3-yl)methyl)-1H-pyrazole-5-carboxamide] displayed a half-inhibitory concentration (IC50) of 0.62 µM. On to `O=C(Nc1ncc(C#Cc2ccccc2)cc1F)c1c(Cl)cnn1-c1ccc2c(c1)OCO2` [Compound 227, 1-(benzo[d][1,3]dioxol-5-yl)-4-chloro-N-(3-fluoro-5-(phenylethynyl)pyridin-2-yl)-1H-pyrazole-5-carboxamide], for which the half-inhibitory concentration (IC50) worked out at 0.35 µM.

In the case of `O=C(Nc1ncc(C#Cc2ccc(F)cc2)cc1F)c1c(Cl)cnn1[C@@H]1CCN(C(=O)C2COCCO2)C[C@H]1F` (stereo partly drawn) [Compound 235, 1-((3R,4R)-1-(1,4-dioxane-2-carbonyl)-3-fluoropiperidin-4-yl)-4-chloro-N-(3-fluoro-5-((4-fluorophenyl)ethynyl)pyridin-2-yl)-1H-pyrazole-5-carboxamide], the half-inhibitory concentration (IC50) was determined as 0.36 µM. Still for that read-out and setting: then `Cc1cc(C#Cc2ccccc2)cnc1NC(=O)c1c(Cl)cnn1[C@@H]1CCN(C(=O)OC(C)(C)C)C1` [Compound 353, tert-butyl (R)-3-(4-chloro-5-((3-methyl-5-(phenylethynyl)pyridin-2-yl)carbamoyl)-1H-pyrazol-1-yl)pyrrolidine-1-carboxylate], with 0.85 µM; and `Cc1cc(C#Cc2ccccc2)cnc1NC(=O)c1c(Cl)cnn1C[C@@H]1CCN(C(=O)C(C)C)C[C@H]1F` [Compound 222, 4-chloro-1-(((3S,4S)-3-fluoro-1-isobutyrylpiperidin-4-yl)methyl)-N-(3-methyl-5-(phenylethynyl)pyridin-2-yl)-1H-pyrazole-5-carboxamide], with 0.34 µM.

`Cc1cc(-c2cnn(-c3ccc(F)cc3)c2)cnc1NC(=O)c1c(Cl)cnn1CC1(C#N)CC1` [Compound 389, 4-chloro-1-((1-cyanocyclopropyl)methyl)-N-(5-(1-(4-fluorophenyl)-1H-pyrazol-4-yl)-3-methylpyridin-2-yl)-1H-pyrazole-5-carboxamide]: the half-inhibitory concentration (IC50) worked out at 1.21 µM. Turning to `Cc1cc(C#Cc2ccccc2)cc(F)c1NC(=O)c1c(Cl)cnn1C[C@H]1CCOC1` [Compound 219, (R)-4-chloro-N-(2-fluoro-6-methyl-4-(phenylethynyl)phenyl)-1-((tetrahydrofuran-3-yl)methyl)-1H-pyrazole-5-carboxamide], the IC50 stood at 0.34 µM. Compared with the last molecule, the IC50 is about 3.6-fold lower. The molecule `O=C(Nc1ncc(C#Cc2ccccc2)cc1F)c1c(Cl)cnn1[C@H]1CCOC1` [Compound 275, (S)-4-chloro-N-(3-fluoro-5-(phenylethynyl)pyridin-2-yl)-1-(tetrahydrofuran-3-yl)-1H-pyrazole-5-carboxamide] came in with a concentration for half-maximal inhibition (IC50) of 0.48 µM. This IC50 and that of the molecule before are within 1.5-fold of each other. As to `CC(=O)N1CC[C@@H](n2ncc(Cl)c2C(=O)Nc2ncc(C#Cc3ccccc3)cc2C)C[C@@H]1C` (single isomer, unassigned) [Compound 261, 1-[(2S,4R)-1-acetyl-2-methylpiperidin-4-yl]-4-chloro-N-[3-methyl-5-(phenylethynyl)pyridin-2-yl]-1H-pyrazole-5-carboxamide or 1-[(2R,4S)-1-acetyl-2-methylpiperidin-4-yl]-4-chloro-N-[3-methyl-5-(phenylethynyl)pyridin-2-yl]-1H-pyrazole-5-carboxamide], half-maximal inhibition (IC50) was put at 0.43 µM. This IC50 and that of the molecule before are within 1.5-fold of each other.

Still in this experiment, the particulars now being: TREK-1 Thallium (Tl+) flux assay; values without footnote *12 are Method 1.
For the molecule `Cc1cc(C#Cc2ccccc2)cnc1NC(=O)c1c(Cl)cnn1CCC1CCN(C(=O)C(C)C)CC1` [Compound 188, 4-chloro-1-(2-(1-isobutyrylpiperidin-4-yl)ethyl)-N-(3-methyl-5-(phenylethynyl)pyridin-2-yl)-1H-pyrazole-5-carboxamide], the IC50 came out at 0.29 µM. On the same count and under the same terms, then `Cc1cc(C#Cc2ccc(F)cc2)cnc1NC(=O)c1c(Cl)cnn1C1CC2(C1)CN(C(=O)C(C)C)C2` [Compound 116, 4-chloro-N-(5-((4-fluorophenyl)ethynyl)-3-methylpyridin-2-yl)-1-(2-isobutyryl-2-azaspiro[3.3]heptan-6-yl)-1H-pyrazole-5-carboxamide], with 0.2 µM. Still for that read-out and setting: the same measure for `Cc1cc(C#Cc2ccccc2)cnc1NC(=O)c1c(Cl)cnn1C1CCN(C(=O)C2COCCO2)C1` (centres unmarked) [Compound 80, 1-(1-(1,4-dioxane-2-carbonyl)pyrrolidin-3-yl)-4-chloro-N-(3-methyl-5-(phenylethynyl)pyridin-2-yl)-1H-pyrazole-5-carboxamide]: 0.16 µM; for `Cc1cc(C#Cc2ccccc2)cnc1NC(=O)c1c(Cl)cnn1C(C)C1CCN(C(=O)C(C)C)CC1` (centres unmarked) [Compound 28, 4-chloro-1-(1-(1-isobutyrylpiperidin-4-yl)ethyl)-N-(3-methyl-5-(phenylethynyl)pyridin-2-yl)-1H-pyrazole-5-carboxamide]: 0.09 µM; for `O=C(Nc1ncc(C#Cc2ccccc2)cc1F)c1c(Cl)cnn1-c1ccc2c(c1)OCCO2` [Compound 189, 4-chloro-1-(2,3-dihydrobenzo[b][1,4]dioxin-6-yl)-N-(3-fluoro-5-(phenylethynyl)pyridin-2-yl)-1H-pyrazole-5-carboxamide]: 0.29 µM. For the molecule `Cc1cc(C#Cc2cccs2)cnc1NC(=O)c1c(Cl)cnn1[C@H]1C[C@@H]2CN(C(=O)C(C)C)C[C@@H]2C1` [Compound 187, 4-chloro-1-[(3aR,5s,6aS)-2-(2-methylpropanoyl)octahydrocyclopenta [c]pyrrol-5-yl]-N-{3-methyl-5-[(thiophen-2-yl)ethynyl]pyridin-2-yl}-1H-pyrazole-5-carboxamide], half-maximal inhibition (IC50) required 0.29 µM. For `CC(=O)N1CCC(Cn2ncc(Cl)c2C(=O)Nc2ncc(C#Cc3ccccc3)cc2F)CC1` [Compound 42, 1-((1-acetylpiperidin-4-yl)methyl)-4-chloro-N-(3-fluoro-5-(phenylethynyl)pyridin-2-yl)-1H-pyrazole-5-carboxamide], the half-inhibitory concentration (IC50) was 0.13 µM. With `Cc1cc(C#Cc2ccccc2)cnc1NC(=O)c1c(Cl)cnn1C1CCN(C(=O)CC(F)(F)F)CC1` [Compound 171, 4-chloro-N-(3-methyl-5-(phenylethynyl)pyridin-2-yl)-1-(1-(3,3,3-trifluoropropanoyl)piperidin-4-yl)-1H-pyrazole-5-carboxamide], the IC50 was 0.27 µM. In turn, `CC(=O)N1CCC(C(C)n2ncc(Cl)c2C(=O)Nc2ncc(C#Cc3ccccc3)cc2C)CC1` (centres unmarked) [Compound 32, 1-(1-(1-acetylpiperidin-4-yl)ethyl)-4-chloro-N-(3-methyl-5-(phenylethynyl)pyridin-2-yl)-1H-pyrazole-5-carboxamide] showed an IC50 of 0.1 µM.
